Laboratory results: patent US6787549B2, “Citrate salt of 5,8,14-triazatetracyclo[10.3.1.02,11.04,9]-hexadeca-2(11),3,5,7,9-pentaene and pharmaceutical compositions thereof” (Pfizer Inc., priority 2001, dated 2004)
Structures can show the parent of a compound that is named as a salt.

Assays:
Format in all cases: physicochemical
[1] = solid state stability (light, elevated temperature, high humidity challenges); conditions: in light, elevated temperatures and high humidity challenges
Description: (§1) Although in general the acid addition salts of 5,8,14-triazatetracyclo[10.3.1.0^2,11.0^4,9]-hexadeca-2(11),3,5,7,9-pentaene are all crystalline, the majority of those salts are so hygroscopic as to render them poor candidates for pharmaceutical formulation use. The citrate salt exists as a hydrate under ambient conditions, where as noted above, hydrate refers to a water content of between 1 and 5% water by weight in the crystal. […] The citrate salt hydrate Form A has been prepared under different conditions: […]

[2] = inertness towards common formulation excipients
[3] = water loss of Form A on drying (low humidity, elevated temperature)
Experimental: Under low humidity and elevated temperature, Form A will lose water depending on the macroscopic crystalline form. Unmilled samples of Form A may be dried in a 45° C. vacuum oven for several days without significant water loss (<1% water loss). […] Under conditions of low humidity and heat, Form A will dehydrate completely or nearly so to form a distinct pseudomorph which maintains a crystalline lattice, referred to herein as Form B. Form B contains between 0 and 1% water by weight.
Form B of the citrate salt of 5,8,14-triazatetracyclo[10.3.1.0^2,11.0^4,9]-hexadeca-2(11),3,5,7,9-pentaene can also be prepared by drying the citrate salt hydrate of 5,8,14-triazatetracyclo[10.3.1.0^2,11.0^4,9]-hexadeca-2(11),3,5,7,9-pentaene. A number of means for drying the water from the crystal lattice may be employed. Form B may be prepared by reducing the particle size of Form A, via any technique known to those of skill in the art, including jet milling, mechanical milling, etc., and drying the reduce particle size citrate salt Form A under conditions sufficient to remove the water in the lattice. […] Vacuum drying at temperatures in the range of 20 to 60° C. will yield Form B in the course of 30 minutes to 10 hours.

[4] = native pH in aqueous solution
[5] = hygroscopicity on exposure to 90% relative humidity in a moisture chamber
Description: as §1

[6] = aqueous solubility

With `c1cnc2cc3c(cc2n1)C1CNCC3C1` [Form A, Citrate Salt Hydrate of 5,8,14-Triazatetracyclo[10.3.1.0^2,11.0^4,9]-Hexadeca-2(11),3,5,7,9-Pentaene (Form A)] as the molecule, how does the solid state stability [1] read?
Its solid state stability is “excellent solid state stability”.

And the “inertness towards common excipients used in pharmaceutical formulation” value [2]?
Its value is “relative inertness towards common excipients”.

And the “water loss and regain (in words)” value ([3]; micronized samples, as humidity and temperature are varied)?
Its value is “readily lose and regain water”.

And the “time until water loss is seen” value ([3]; particle size reduced, at 45° C.)?
Its value is “less than 1 hour”.

What about the water loss ([3]; unmilled samples, 45° C. vacuum oven for several days) of the same molecule?
Its water loss is less than 1%.

What about the “native pH in aqueous solution” value [4] of the same molecule?
The value was 3.7.

And the “hygroscopicity (in words)” value [5]?
The value was “only slightly hygroscopic”.

And the hygroscopicity ([5]; at 90% relative humidity)?
Its hygroscopicity is “approximately 0.6%”.

What about the hygroscopicity ([5]; exposure to 90% relative humidity in a moisture chamber) of the same molecule?
Its hygroscopicity is “approximately 0.6 % wt/wt”.

What about the “aqueous solubility (in words)” value [6] of the same molecule?
Its value is “high aqueous solubility”.

And the aqueous solubility ([6]; listed as citrate hydrate salt)?
The aqueous solubility was 110 mg/mL.

And the solubility ([6]; water)?
The solubility was greater than 100 mg/mL.
